Experimental data published in US9555086B2, “Compositions and methods for inducing an immune response” (The Regents of the University of Michigan, priority 2010, dated 2017).
pIC50: −log10 of the molar value. Entries after “also recorded” stand apart in the source; their conditions may differ. Numbered stars: 1 amine (or outer) side, 2 acyl side, 3 side chain; on linkers, the order of the positions; unused ones are H or OH. Bridge positions count the residues as written; N and C are the ends. Square brackets hold non-standard residues; d marks the D form. Ends that are not written are not given here. Peptide text beside a SMILES is read from it. CO = O=C([*:1])[*:2]; Nlys = NCCCCNCC(=O)O

Legend:
trypsin and chymotrypsin [1] = settings: pH 8
Th17 cells = assay: ISL polarizing effect in vivo (CII in CFA immunization); parameters: species or system DBA/1 mice; settings: 10 μg co-administered with CII in CFA, footpad; day 7
Procedure: (A) DBA/1 mice were immunized with CII in CFA in the presence of PBS, 65-79*0401 or 65-79*0402. On day 7, cells from draining lymph nodes were isolated, cultured for 6 hours with PMA, Ionomycin and Brefeldin A and then stained with anti-mouse CD4, IL17A and IFN-γ as above. On the left: Representative dot plots showing percentages of IL17A+ and IFN-γ+ cells obtained from gated CD4+ cells. On the right, bar graphs showing results as mean±SD of duplicate experiments. (B) DBA/1 and CII-TCR Tg mice were immunized as in (A). On day 7, splenic cells were isolated and cultured with the synthetic peptide CII260-267 (5 μg/ml). Supernatants were collected every 24 hours and assayed for IL-17 levels by ELISA.
Mice were injected subcutaneously in the footpad with 100 μg of chicken collagen type II (CII) (Chondrex, Inc, Redmond, Wash.) emulsified in CFA (4 mg/ml). The inoculums contained 10 μg of either ISL-positive 65-79*0401 or ISL-negative 65-79*0402 ligands in PBS, or an equal volume of PBS alone. Animals were sacrificed 7 days after immunization. For Th17 quantification studies, inguinal and popliteal lymph nodes were collected and single cell suspensions were prepared. Unfractionated lymph node cells were cultured with PMA, Ionomycin and Brefeldin A for 6 hours as above. Cells were stained with FITC anti-mouse CD4 or isotype controls, followed by fixation and permeabilization using a Cytofix-Cytoperm™ kit. After permeabilization, intracellular staining was performed using PE-conjugated anti-mouse IL17A and APC-conjugated anti-mouse IFN-γ and cells were analyzed by flow cytometry as above. To measure IL-17 production, splenocytes from mice immunized as above were stimulated in vitro with 5 μg of CII259-273 peptide. At different time points thereafter, supernatants were collected and assayed for IL-17 by ELISA as above.

CD8+ and CD8− DC = assay: Cytokine production by splenic DC subsets (Luminex); type: cell-based, mouse; settings: CD11c+CD8− DCs; 50 μg/ml peptide
Procedure: Splenic CD8+ and CD8− DC were isolated from DBA/1 mice as above and cultured in 96-well plates over time in the presence or absence of ISL-positive (65-79*0401) or ISL-negative (65-79*0402) peptides (50 μg/ml). At various time points thereafter, supernatants were collected and assayed for cytokine content, using the Luminex platform.
DBA/1 splenic unfractionated CD11c+ DCs (CD11c+), or their purified CD11c+CD8+ DCs (CD8+) or CD11c+CD8− DCs (CD8−) subsets were cultured with the ISL 65-79*0401 or ISL-negative control 65-79*0402 or medium. Supernatants were collected at different time points and assayed for cytokine content using a Luminex platform.
To determine the rate of NO production, cells were loaded with 20 μM of the fluorescent NO probe 4,5-diaminofluorescein diacetate (DAF-2DA) and the fluorescence level was recorded every 5 minutes over a period of 500 minutes using a Fusion αHT system (PerkinElmer Life Sciences) at an excitation wavelength of 488 nm and emission wavelength of 515 nm. To determine IDO enzymatic activity, the generation of its product, kynurenine was measured (Takikawa et al. 1988. J Biol Chem 263:2041-2048.; herein incorporated by reference in its entirety). Cytokine concentrations were measured in cell culture supernatants using a Luminex platform (Millipore Corporation, Danvers, Mass.). In some experiments, cytokines were determined using ELISA (Quantikine®, R&D Systems, Minneapolis, Minn.) following the manufacture's instruction.

[2] = test system: antioxidative signaling pathway; settings: read-out: IC50 as activator of antioxidative signaling pathway; cited from earlier work
trypsin and chymotrypsin [3] = assay: Trypsin/chymotrypsin stability assay
[4] = test system: Human fibroblast M1 cells; assay: Nitric Oxide Assay in human fibroblast M1 cells; type: cell-based
Procedure: FIGS. 17A and 17B show dose-response experiments of NO production rate induced by cyclic analogs. Human M1 fibroblasts were incubated with different concentrations of the listed cyclic peptides, or with 50 μM of positive (65-79*0401) or negative (65−79*0402) control peptides. NO production rates were determined using the fluorescent probe 4,5-diaminofluorescein diacetate (DAF-2DA) (See Ling et al., Arthritis Res Ther 2007, 9, R5; Ling et al., J. J Immunol 2007, 179, 6359; Ling et al., Arthritis Rheum 2006, 54, 3423).
Nitric Oxide Assay. Human fibroblast M1 cells were plated at a density of 1×10^5 cells per well in 96-well plates the day prior to the Nitric Oxide assay. To determine the rate of NO production in fibroblast, cells were first loaded with 20 μM of the fluorescent NO probe 4,5-diaminofluorescein diacetate (DAF-2DA), incubated in the dark at 37° C. for 1 hour and washed in 100 μL of DMEM/phenol red-free medium. The fluorescence level was recorded every 5 minutes over a period of 500 minutes, using a Fusion αHT system (PerkinElmer Life Sciences) at an excitation wavelength of 488 nm and emission wavelength of 515 nm. The NO production rate is expressed as the mean±SEM fluorescence units per minute.

## H-KDLLEQRRAAVDTYC-NH2 [65-79*0404]
Trypsin and chymotrypsin [1]
  degradation by trypsin/chymotrypsin (HPLC): degraded completely

## H-Lys-Asp-Ile-Leu-Glu-Asp-Glu-Arg-Ala-Ala-Val-Asp-Thr-Tyr-Cys-NH2 (H-KDILEDERAAVDTYC-NH2) [65-79*0402, reference compound]
Th17 cells
  Th17 abundance in draining lymph nodes: no effect
CD8+ and CD8− DC
  IL-6 production: did not trigger any increased production; also recorded: did not trigger any cytokine production

## C=C(C)CCOP(=O)(O)OP(=O)(O)O [IPP, Isopentenyl diphosphate]
[2]
  pIC50: 10.77

## C[C@H](NC(=O)CN1CCCCNC(=O)NCCCCN(C(=O)[C@@H](N)Cc2c[nH]c3ccccc23)CC(=O)N[C@@H](CCC(N)=O)C(=O)N[C@@H](CCCCN)C(=O)N[C@@H](CCCNC(=N)N)C1=O)C(N)=O [c(HS4-4)] (H-W[Nlys]QKR[Nlys]A-NH2; linker 2-6 via CO)
Trypsin and chymotrypsin [3]; 4 hours of incubation, 37° C., pH 8
  stability towards trypsin/chymotrypsin degradation (HPLC): completely stable
Trypsin and chymotrypsin [3]; after trypsin/chymotrypsin incubation
  cleavage fragments in MS analysis: no fragments were observed

## c(HS6-2): cyclic analog named only in b214; probably a misprint of c(HS2-4) (QRRAA; bridge (positions not given here) via CO; also: urea backbone cyclisation, places not given here)
[4]
  potency in activating NO production (in words): potent analogs
